Experimental data published in publication PMC3663048 (Journal of medicinal chemistry, 2011).
Substitutions are numbered along the chain they refer to. Blank lines part the entries; values can stand above or below the molecule they belong to.

Experiments:
Nek2 = target: T1, Nek2 (Homo sapiens, UniProt P51955); experiment: In vitro kinase assay with WT Nek2; conditions: for Percent inhibition of Nek2 kinase activity: 5 μM, 30 min pre-incubation; for Potency against WT Nek2 (dose-response): WT Nek2, in vitro kinase assay; for inhibition at 5 µM: read-out: Percent inhibition of Nek2 kinase activity
T1 sequence (P51955 1-445): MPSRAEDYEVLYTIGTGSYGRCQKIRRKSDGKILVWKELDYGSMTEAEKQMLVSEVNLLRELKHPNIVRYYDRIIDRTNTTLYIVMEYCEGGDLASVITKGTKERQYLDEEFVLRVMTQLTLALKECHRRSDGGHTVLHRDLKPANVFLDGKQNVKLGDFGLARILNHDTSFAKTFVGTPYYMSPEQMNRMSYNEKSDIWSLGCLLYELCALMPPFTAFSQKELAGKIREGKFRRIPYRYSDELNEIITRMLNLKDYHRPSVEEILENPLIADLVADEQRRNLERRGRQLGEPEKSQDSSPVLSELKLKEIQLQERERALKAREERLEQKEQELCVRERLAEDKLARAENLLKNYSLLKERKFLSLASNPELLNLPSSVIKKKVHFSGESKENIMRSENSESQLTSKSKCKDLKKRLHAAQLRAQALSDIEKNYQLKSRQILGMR

endogenous Nek2 = target: T2, endogenous Nek2 (Homo sapiens, UniProt P51955); experiment: Immunoprecipitation kinase assay of endogenous Nek2 from treated A549 cells; assay type: cell-based; conditions: A549, read-out: Inhibition of cellular Nek2
T2 sequence (P51955 1-445): T1 sequence (P51955 1-445)

[1] = system: monastrol-arrested A549 cells; experiment: Mitotic exit of monastrol-arrested A549 cells; assay type: cell-based, human; conditions: 45 min; for Phospho-Ser10 histone H3 staining (mitotic marker): 5 μM
C22V Nek2 = target: T3, C22V Nek2 (Homo sapiens, UniProt P51955, C22V); experiment: In vitro kinase assay with C22V Nek2; assay type: biochemical; conditions: C22V mutant
T3 sequence (P51955 1-445 C22V): T1 sequence (P51955 1-445) with C22V

[2] = target: T4, WT Nek2 kinase domain (aa 1-271) (Homo sapiens, UniProt P51955); experiment: Mass spectrometry-based covalent binding assay, WT Nek2 kinase domain; conditions: ten-fold molar excess of compound, physiological pH
T4 sequence (P51955 1-271): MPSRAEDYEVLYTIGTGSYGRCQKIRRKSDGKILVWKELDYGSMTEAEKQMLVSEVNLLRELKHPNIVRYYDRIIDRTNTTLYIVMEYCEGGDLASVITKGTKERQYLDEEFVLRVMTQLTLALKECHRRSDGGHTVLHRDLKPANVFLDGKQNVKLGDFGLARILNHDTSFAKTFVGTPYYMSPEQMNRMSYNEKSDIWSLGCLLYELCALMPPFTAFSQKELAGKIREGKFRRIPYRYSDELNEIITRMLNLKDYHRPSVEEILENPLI

Compound: CC#CC(=O)Nc1ccc2c(c1)/C(=C/c1[nH]c(CC)nc1C)C(=O)N2 [compound 18, (Z)-N-(3-((2-Ethyl-4-methyl-1H-imidazol-5-yl)methylene)-2-oxoindolin-5-yl)but-2-ynamide]
IC50 (Nek2): ~20 µM | inhibition at 5 µM (endogenous Nek2): 10 to 25%

Compound: O=C1NC(=NCc2cccs2)S/C1=C\c1ccc2ncccc2c1 [compound 19, reference compound]
Phospho-Ser10 histone H3 staining (mitotic marker) [1]: devoid of this mitotic marker

Compound: C#CC(=O)Nc1ccc2c(c1)/C(=C/c1[nH]cnc1C)C(=O)N2 [compound 15, (Z)-N-(3-((4-Methyl-1H-imidazol-5-yl)methylene)-2-oxoindolin-5-yl)propiolamide]
Phospho-Ser10 histone H3 staining (mitotic marker) [1]: devoid of this mitotic marker | % mitotic exit (5 μM) ([1]; immunofluorescence): 80%

Compound: C=CC(=O)Nc1ccc2c(c1)/C(=C/c1ccc[nH]1)C(=O)N2 [compound 7, (Z)-N-(3-((1H-Pyrrol-2-yl)methylene)-2-oxoindolin-5-yl)acrylamide]
Percent inhibition of Nek2 kinase activity (Nek2): ineffective

Compound: CCc1nc(C)c(/C=C2\C(=O)Nc3ccc(C(=O)CCl)cc32)[nH]1 [compound 11, (Z)-5-(2-Chloroacetyl)-3-((2-ethyl-4-methyl-1H-imidazol-5-yl)methylene)indolin-2-one]
Alkylation of WT Nek2 kinase domain (ESI-MS) [2]: reacted stoichiometrically

Results, then the molecule that gave them:

Percent inhibition of Nek2 kinase activity (Nek2): nearly complete inhibition | Potency against WT Nek2 (dose-response) (Nek2): submicromolar | inhibition at 5 µM (Nek2): > 80% | Potency against C22V Nek2 compared to WT (C22V Nek2): significantly less potent | Alkylation of WT Nek2 kinase domain (ESI-MS) [2]: alkylated WT Nek2 at a single site
Compound: C#CC(=O)Nc1ccc2c(c1)/C(=C/c1ccc[nH]1)C(=O)N2 [compound 8, (Z)-N-(3-((1H-Pyrrol-2-yl)methylene)-2-oxoindolin-5-yl)propiolamide]

Potency against WT Nek2 (dose-response) (Nek2): submicromolar | inhibition at 5 µM (Nek2): > 80% | Potency against C22V Nek2 compared to WT (C22V Nek2): significantly less potent | Alkylation of WT Nek2 kinase domain (ESI-MS) [2]: alkylated WT Nek2 at a single site
Compound: O=C1Nc2ccc(C(=O)CCl)cc2/C1=C/c1ccc[nH]1 [compound 2, (Z)-3-((1H-Pyrrol-2-yl)methylene)-5-(2-chloroacetyl)indolin-2-one]
